The target of the assay is T1, human S1P1 receptor (Homo sapiens, UniProt P21453).
T1 construct: expressed in transfected cells; membranes used
The assay is described as follows: GTP γ35S binding assay for S1P1 activity. The settings on record: for Emax at 5 µM: intrinsic activity at 5 μM, read-out: % S1P1 STIMULATION @ 5 μM; for EC50: membranes of cells stably expressing S1P1, test concentrations 0.08 to 5,000 nM, read-out: S1P1 GTPγ^35S EC50. In kind it is biochemical. Here is the method: Novel compounds were synthesized and tested for S1P1 activity using the GTP γ^35S binding assay. These compounds may be assessed for their ability to activate or block activation of the human S1P1 receptor in cells stably expressing the S1P1 receptor. GTP γ^35S binding was measured in the medium containing (mM) HEPES 25, pH 7.4, MgCl2 10, NaCl 100, dithitothreitol 0.5, digitonin 0.003%, 0.2 nM GTP γ^35S, and 5 μg membrane protein in a volume of 150 μl. Test compounds were included in the concentration range from 0.08 to 5,000 nM unless indicated otherwise. Membranes were incubated with 100 μM 5′-adenylylimmidodiphosphate for 30 min, and subsequently with 10 μM GDP for 10 min on ice. Drug solutions and membrane were mixed, and then reactions were initiated by adding GTP γ^35S and continued for 30 min at 25° C. Reaction mixtures were filtered over Whatman GF/B filters under vacuum, and washed three times with 3 mL of ice-cold buffer (HEPES 25, pH7.4, MgCl2 10 and NaCl 100). Filters were dried and mixed with scintillant, and counted for ^35S activity using a β-counter. Agonist-induced GTP γ^35S binding was obtained by subtracting that in the absence of agonist. Binding data were analyzed using a non-linear regression method. In case of antagonist assay, the reaction mixture contained 10 nM S1P in the presence of test antagonist at concentrations ranging from 0.08 to 5000 nM.

Eight compounds from US8440698B2, “3-(4-((1H-imidazol-1-yl)methyl)phenyl)-5-aryl-1,2,4-oxadiazole derivatives as sphingosine-1 phosphate receptors modulators” (Allergan, Inc., priority 2010, dated 2013) can be followed below.

By EC50 is commonly meant the concentration at which the effect is half-maximal.

The structures appear in SMILES notation.

T1 sequence (P21453 whole entry): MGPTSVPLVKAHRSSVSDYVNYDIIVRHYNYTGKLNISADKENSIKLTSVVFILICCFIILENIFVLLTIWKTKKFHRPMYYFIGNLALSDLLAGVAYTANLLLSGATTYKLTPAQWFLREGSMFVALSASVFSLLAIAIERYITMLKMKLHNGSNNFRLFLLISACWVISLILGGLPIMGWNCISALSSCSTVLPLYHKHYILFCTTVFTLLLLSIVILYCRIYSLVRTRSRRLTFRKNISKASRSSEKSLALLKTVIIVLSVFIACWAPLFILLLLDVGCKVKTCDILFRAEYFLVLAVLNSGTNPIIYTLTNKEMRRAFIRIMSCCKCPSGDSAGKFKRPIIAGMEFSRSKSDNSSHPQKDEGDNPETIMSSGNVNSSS

With `CC(C)Oc1ccc(-c2nc(-c3ccc(Cn4ccnc4)cc3)no2)cc1C#N` [Compound 12, 5-[3-(4-Imidazol-1-ylmethyl-phenyl)-[1,2,4]oxadiazol-5-yl]-2-isopropoxy-benzonitrile], the Emax at 5 µM is 94.6% and the EC50 worked out at 3.31 nM.
On to `Cc1cc(Cn2ccnc2)ccc1-c1noc(-c2ccc(OC(C)C)c(C#N)c2)n1` [Compound 13, 5-[3-(4-Imidazol-1-ylmethyl-2-methyl-phenyl)-[1,2,4]oxadiazol-5-yl]-2-isopropoxy-benzonitrile], for which the Emax at 5 µM was determined as 96.4% and the EC50 was determined as 4.76 nM.
The like results for `CC(C)Oc1ccc(-c2nc(-c3ccc(Cn4ccnc4)cc3)no2)cc1Br` [Compound 14, 5-(3-Bromo-4-isopropoxy-phenyl)-3-(4-imidazol-1-ylmethyl-phenyl)-[1,2,4]oxadiazole] were, in that order, 93.9% and 0.92 nM.
The like results for `Cc1cc(Cn2ccnc2)ccc1-c1noc(-c2ccc(OC(C)C)c(Br)c2)n1` [Compound 15, 5-(3-Bromo-4-isopropoxy-phenyl)-3-(4-imidazol-1-ylmethyl-2-methyl-phenyl)-[1,2,4]oxadiazole] were, in that order, 109% and 19.6 nM.
Turning to `CC(C)Oc1ccc(-c2nc(-c3ccc(Cn4ccnc4)cc3)no2)cc1Cl` [Compound 16, 5-(3-Chloro-4-isopropoxy-phenyl)-3-(4-imidazol-1-ylmethyl-phenyl)-[1,2,4]oxadiazole], the Emax at 5 µM was 99.8% and the EC50 turned out to be 2.79 nM.
For the compound `Cc1cc(-c2nc(-c3ccc(Cn4ccnc4)cc3)no2)ccc1OC(C)C` [Compound 17, 3-(4-Imidazol-1-ylmethyl-phenyl)-5-(4-isopropoxy-3-methyl-phenyl)-[1,2,4]oxadiazole], the Emax at 5 µM is 133% and the EC50 stood at 10.3 nM.
As to `Cc1cc(-c2nc(-c3ccc(Cn4ccnc4)cc3C)no2)ccc1OC(C)C` [Compound 18, 3-(4-Imidazol-1-ylmethyl-2-methyl-phenyl)-5-(4-isopropoxy-3-methyl-phenyl)-[1,2,4]oxadiazole], the Emax at 5 µM came to 94.6% and the EC50 came to 19.8 nM.
On to `Cc1cc(Cn2ccnc2)ccc1-c1noc(-c2ccc(OC(C)C)c([N+](=O)[O-])c2)n1` [Compound 19, 3-(4-Imidazol-1-ylmethyl-2-methyl-phenyl)-5-(4-isopropoxy-3-nitro-phenyl)-[1,2,4]oxadiazole], for which the Emax at 5 µM turned out to be 102% and the EC50 stood at 8.98 nM.
